Among the test systems are Pseudomonas aeruginosa; Staphylococcus aureus; Escherichia coli; Acinetobacter baumannii; Escherichia coli UB1005; Candida albicans.
What all share (experiment): ≥ marks a high value that may be exact or a test limit, other limits are often not marked, values filed in µg/mL are converted to µM
The test system of assay [1] is Acinetobacter baumannii ATCC 19606.
In assay [2] the test system is Pseudomonas aeruginosa ATCC 9027.
Assay [3] concerns Staphylococcus aureus ATCC 25923.
Assay [4] deals with Klebsiella pneumoniae ATCC 700603.
The subject of assay [5] is Escherichia coli ATCC 25922.
For assay [6], the system named is Pseudomonas aeruginosa PAO1.
Assay [7] has as its system Pseudomonas aeruginosa ATCC 27853.

Converted amounts (≈) assume the structure as drawn. Where only a bound is given, the exact number is not on record here.

As for `CC(C)C[C@H](NC(=O)CNC(=O)[C@H](C)NC(=O)[C@H](CC(C)C)NC(=O)[C@H](CCCCN)NC(=O)[C@H](CCCCN)NC(=O)[C@H](C)NC(=O)[C@H](CC(C)C)NC(=O)CNC(=O)[C@H](C)NC(=O)[C@H](Cc1c[nH]c2ccccc12)NC(=O)[C@H](CCCCN)NC(=O)[C@H](CCCCN)NC(=O)[C@H](C)NC(=O)[C@H](CC(C)C)NC(=O)CNC(=O)[C@H](C)NC(=O)[C@H](CC(C)C)NC(=O)[C@@H](N)CCCCN)C(=O)N[C@@H](C)C(=O)N[C@@H](CCCCN)C(N)=O` [KLAGLAKKWAGLAKKLAGLAK], the minimum inhibitory concentration (MIC) was 7.49 µM (≈ 16 µg/mL) in the assay on Pseudomonas aeruginosa, 7.49 µM (≈ 16 µg/mL) with Staphylococcus aureus and 3.74 µM (≈ 8 µg/mL) in the assay with Escherichia coli.
With `CC[C@H](C)[C@H](NC(=O)[C@H](CCCN=C(N)N)NC(=O)[C@@H](NC(=O)[C@@H](NC(=O)[C@@H]1CCCN1C(=O)[C@@H](NC(=O)[C@@H](NC(=O)[C@@H](NC(=O)[C@@H]1CCCN1C(=O)CNC(=O)CNC(=O)[C@H](CCCCN)NC(=O)[C@H](CCCCN)NC(=O)[C@H](Cc1c[nH]c2ccccc12)NC(=O)[C@H](C)NC(=O)[C@H](CCCN=C(N)N)NC(=O)[C@H](CC(C)C)NC(=O)[C@@H](NC(=O)[C@H](CCCCN)NC(=O)[C@H](CCCN=C(N)N)NC(=O)CNC(=O)[C@H](CC(C)C)NC(=O)[C@H](CCCCN)NC(=O)[C@H](CCCN=C(N)N)NC(=O)[C@H](CC(C)C)NC(=O)CNC(=O)[C@@H](N)CCCCN)[C@@H](C)CC)[C@@H](C)CC)[C@@H](C)CC)C(C)C)[C@@H](C)CC)[C@@H](C)CC)C(=O)O` [KGLRKLGRKILRAWKKGGPIIVPIIRI], the MIC amounted to 3.25 µM (≈ 10 µg/mL) against Acinetobacter baumannii and 2.3 µM (≈ 7.07 µg/mL) in assay [1].
Regarding `CSCC[C@H](NC(=O)[C@@H](NC(=O)[C@H](CCCN=C(N)N)NC(=O)[C@H](Cc1ccccc1)NC(=O)[C@H](C)NC(=O)[C@H](C)NC(=O)[C@H](CCCCN)NC(=O)[C@H](CCCN=C(N)N)NC(=O)[C@H](Cc1c[nH]c2ccccc12)NC(=O)[C@H](C)NC(=O)[C@@H]1CCCN1C(=O)[C@@H](N)CCCN=C(N)N)C(C)C)C(=O)N[C@@H](CCCN=C(N)N)C(=O)N[C@@H](C)C(=O)N[C@@H](CS)C(=O)N[C@H](C(N)=O)C(C)C` [RPAWRKAAFRVMRACV], the MIC against Pseudomonas aeruginosa amounted to 2.09 µM (≈ 4 µg/mL).
Consider `CC[C@H](C)[C@H](NC(=O)[C@H](Cc1c[nH]c2ccccc12)NC(=O)[C@H](CCCCN)NC(=O)[C@@H](NC(=O)[C@H](CC(C)C)NC(=O)[C@H](CO)NC(=O)[C@H](CCCCN)NC(=O)CN)C(C)C)C(=O)N[C@H](C(=O)N[C@@H](CCCCN)C(=O)N[C@@H](CO)C(=O)N[C@H](C(=O)N[C@@H](CCCN=C(N)N)C(=O)N[C@@H](CCCCN)C(=O)N[C@@H](C)C(N)=O)C(C)C)C(C)C` [GKSLVKWIVKSVRKA], for which the MIC in assay [2] was above 25 µM; in [3], above 25 µM; in the assay with Acinetobacter baumannii, 25 µM (≈ 42.5 µg/mL); in assay [4], above 25 µM; in [5], above 25 µM.
Take `CC(C)C[C@H](NC(=O)[C@H](Cc1ccc(O)cc1)NC(=O)[C@@H]1CCCN1C(=O)[C@@H]1CCCN1C(=O)[C@H](CCCCN)NC(=O)[C@H](CC(=O)O)NC(=O)[C@@H](N)C(C)C)C(=O)N1CCC[C@H]1C(=O)N[C@@H](CCCN=C(N)N)C(=O)N1CCC[C@H]1C(=O)N[C@@H](CCCN=C(N)N)C(=O)N1CCC[C@H]1C(=O)N1CCC[C@H]1C(=O)N[C@@H](CCCN=C(N)N)C(=O)N[C@@H](CCCN=C(N)N)C(=O)N[C@@H](Cc1ccccc1)C(=O)N[C@@H](Cc1ccc(O)cc1)C(=O)N[C@@H](CC(N)=O)C(=O)N[C@@H](CCCN=C(N)N)C(N)=O` [VDKPPYLPRPRPPRRFYNR]: the minimal inhibitory concentration (MIC) came out at 6.6 µM (≈ 16 µg/mL) in assay [3], 0.364 µM (≈ 0.883 µg/mL) against Escherichia coli UB1005 and 106 µM (≈ 256 µg/mL) in [6].
As for `CC[C@H](C)[C@H](NC(=O)[C@H](Cc1ccccc1)NC(=O)[C@H](CO)NC(=O)[C@H](CCCCN)NC(=O)[C@H](Cc1c[nH]c2ccccc12)NC(=O)[C@@H](N)CCCCN)C(=O)N[C@@H](CCCCN)C(=O)N[C@@H](CCCCN)C(=O)N[C@@H](CC(C)C)C(=O)N[C@H](C(=O)N[C@@H](CO)C(=O)N[C@@H](CCCCN)C(=O)N[C@@H](CCCCN)C(=O)N[C@@H](CC(C)C)C(=O)N[C@@H](Cc1cnc[nH]1)C(=O)N[C@@H](CO)C(=O)N[C@@H](C)C(=O)N[C@@H](CCCCN)C(=O)N[C@@H](CCCCN)C(=O)N[C@@H](Cc1ccccc1)C(N)=O)[C@@H](C)O` [KWKSFIKKLTSKKLHSAKKF], the MIC in the assay with Pseudomonas aeruginosa was above 20.5 µM.
For the compound `CC(C)C[C@H](NC(=O)CNC(=O)[C@@H]1CCCN1C(=O)[C@H](CCCCN)NC(=O)[C@H](CCCCN)NC(=O)[C@@H]1CCCN1C(=O)[C@H](CCCN=C(N)N)NC(=O)[C@H](CC(=O)O)NC(=O)[C@@H](N)CCCCN)C(=O)N[C@@H](CS)C(=O)N1CCC[C@H]1C(=O)N[C@@H](C)C(=O)N[C@@H](C)C(=O)N[C@@H](CCCCN)C(=O)N[C@@H](CCCCN)C(=O)N[C@@H](C)C(=O)N[C@@H](C)C(=O)N[C@@H](C)C(=O)N[C@@H](C)C(=O)N[C@@H](CCCCN)C(=O)N[C@@H](C)C(N)=O` [KDRPKKPGLCPAAKKAAAAKA], the MIC is 118 µM (≈ 250 µg/mL) in assay [3]; 236 µM (≈ 500 µg/mL) in the assay with Candida albicans; 58.9 µM (≈ 125 µg/mL) in the assay with Pseudomonas aeruginosa; 118 µM (≈ 250 µg/mL) in the assay on Staphylococcus aureus; 29.5 µM (≈ 62.5 µg/mL) in [7]; 14.7 µM (≈ 31.2 µg/mL) in [5]. This compound also registered an MIC against Escherichia coli above 236 µM.
Consider `CC(C)C[C@H](NC(=O)CNC(=O)[C@H](C)NC(=O)[C@H](CC(C)C)NC(=O)[C@H](CCCCN)NC(=O)[C@H](C)NC(=O)[C@H](CCCCN)NC(=O)[C@H](CC(C)C)NC(=O)CNC(=O)[C@H](C)NC(=O)[C@H](Cc1c[nH]c2ccccc12)NC(=O)[C@H](CCCCN)NC(=O)[C@H](C)NC(=O)[C@H](CCCCN)NC(=O)[C@H](CC(C)C)NC(=O)CNC(=O)[C@H](C)NC(=O)[C@H](CC(C)C)NC(=O)[C@@H](N)CCCCN)C(=O)N[C@@H](CCCCN)C(=O)N[C@@H](C)C(N)=O` [KLAGLKAKWAGLKAKLAGLKA], for which the MIC in the assay on Pseudomonas aeruginosa, against Staphylococcus aureus and against Escherichia coli was above 120 µM each time.
For `CC[C@H](C)[C@H](NC(=O)[C@H](CCCCN)NC(=O)[C@H](CS)NC(=O)[C@H](C)NC(=O)[C@@H](NC(=O)[C@H](Cc1ccccc1)NC(=O)CNC(=O)[C@H](CC(C)C)NC(=O)CNC(=O)[C@@H](NC(=O)[C@H](CCCCN)NC(=O)[C@H](CCCCN)NC(=O)[C@H](CC(C)C)NC(=O)[C@H](CC(N)=O)NC(=O)[C@H](CCCCN)NC(=O)[C@H](CC(C)C)NC(=O)[C@@H](NC(=O)[C@H](CO)NC(=O)[C@H](CC(C)C)NC(=O)[C@H](CCSC)NC(=O)[C@@H](N)CO)C(C)C)C(C)C)C(C)C)C(=O)N[C@@H](CC(N)=O)C(=O)N[C@@H](CCCCN)C(=O)N[C@@H](CCC(N)=O)C(=O)N[C@@H](CS)C(=O)O` [SMLSVLKNLKKVGLGFVACKINKQC], the MIC against Candida albicans was above 200 µM; in the assay on Staphylococcus aureus, above 200 µM; against Escherichia coli it was 200 µM (≈ 544 µg/mL).
Take `CC[C@H](C)[C@H](NC(=O)[C@H](CC(C)C)NC(=O)[C@H](CCC(N)=O)NC(=O)[C@@H](NC(=O)[C@H](CC(C)C)NC(=O)[C@H](CCCN=C(N)N)NC(=O)[C@H](CCCN=C(N)N)NC(=O)[C@@H](NC(=O)[C@H](C)NC(=O)[C@H](CCCCN)NC(=O)[C@H](CCCN=C(N)N)NC(=O)[C@@H](N)CC(C)C)[C@@H](C)O)C(C)C)C(=O)N[C@H](C(=O)N[C@@H](CO)C(=O)NCC(=O)O)C(C)C` [LRKATRRLVQLIVSG]: the MIC was above 25 µM in assay [2]; above 25 µM in [3]; 25 µM (≈ 42.8 µg/mL) against Acinetobacter baumannii; above 25 µM in assay [4]; above 25 µM in assay [5].
In the case of `CC[C@H](C)[C@H](NC(=O)[C@H](CC(C)C)NC(=O)[C@H](Cc1cnc[nH]1)NC(=O)[C@@H](NC(=O)[C@@H](NC(=O)[C@@H](NC(=O)CNC(=O)[C@H](CC(C)C)NC(=O)[C@H](C)NC(=O)[C@H](C)NC(=O)[C@H](CCCCN)NC(=O)CNC(=O)[C@@H](NC(=O)[C@H](Cc1cnc[nH]1)NC(=O)[C@H](CCCCN)NC(=O)[C@@H](NC(=O)[C@@H](NC(=O)[C@H](CC(=O)O)NC(=O)[C@H](CC(C)C)NC(=O)[C@H](Cc1ccccc1)NC(=O)CN)C(C)C)[C@@H](C)CC)C(C)C)C(C)C)C(C)C)[C@@H](C)O)C(=O)N[C@@H](CC(N)=O)C(=O)N[C@@H](CCC(N)=O)C(N)=O` [GFLDVIKHVGKAALGVVTHLINQ], the MIC was 13.2 µM (≈ 32 µg/mL) against Candida albicans, 6.58 µM (≈ 16 µg/mL) against Staphylococcus aureus and 26.3 µM (≈ 64 µg/mL) against Escherichia coli.
For the compound `CC(C)C[C@H](NC(=O)[C@H](Cc1ccc(O)cc1)NC(=O)[C@@H]1CCCN1C(=O)[C@@H]1CCCN1C(=O)[C@H](CCCCN)NC(=O)[C@@H]1CCCN1C(=O)[C@@H](N)C(C)C)C(=O)N1CCC[C@H]1C(=O)N[C@@H](CCCN=C(N)N)C(=O)N1CCC[C@H]1C(=O)N[C@@H](CCCN=C(N)N)C(=O)N1CCC[C@H]1C(=O)N1CCC[C@H]1C(=O)N[C@@H](CCCN=C(N)N)C(=O)N[C@@H](CCCN=C(N)N)C(=O)N[C@@H](Cc1ccccc1)C(=O)N[C@@H](Cc1ccc(O)cc1)C(=O)N[C@@H](CC(N)=O)C(=O)N[C@@H](Cc1cnc[nH]1)C(N)=O` [VPKPPYLPRPRPPRRFYNH], the minimal inhibitory concentration (MIC) is 3.35 µM (≈ 8 µg/mL) in assay [3], 16.8 µM (≈ 40 µg/mL) against Escherichia coli UB1005 and 107 µM (≈ 256 µg/mL) in assay [6].

By MIC is commonly meant the lowest concentration that inhibits growth of the organism.

The values are drawn from DBAASP.
